According to PubChem BioAssay (NCI):
“And” between values parts separate entries of the source, which are not always exact repeats. Equal entries are not always repeated.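 48-hour exposure; five concentrations; linearly interpolated endpoints. The concentration for 50% growth inhibition is given as GI50. TGI: concentration producing complete growth inhibition.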

Legend:
Assay in all cases: growth of human tumour cells (NCI), 48 h
[1] = test system: A498 renal
[2] = test system: ACHN renal
[3] = test system: HCT-15 colon
[4] = test system: HOP-92 NSCLC
[5] = test system: MCF7 breast
[6] = test system: MOLT-4 leukemia
[7] = test system: NCI-H460 lung
[8] = test system: SF-268 CNS
[9] = test system: T-47D breast
[10] = test system: UO-31 renal

| SMILES | TGI [1] | TGI [2] [µM] | TGI [3] | TGI [4] | TGI [5] | TGI [6] [µM] | TGI [7] | TGI [8] | TGI [9] [µM] | TGI [10] | GI50 [6] | GI50 [8] | GI50 [10] | GI50 [1] [µM] | GI50 [3] [µM] | GI50 [4] [µM] | GI50 [5] [µM] | GI50 [7] [µM] |
| --- | --- | --- | --- | --- | --- | --- | --- | --- | --- | --- | --- | --- | --- | --- | --- | --- | --- | --- |
| O=C1CS[C@@](CC(c2ccc(Cl)cc2)c2ccc(Cl)cc2)(c2ccc(Cl)cc2)N1 | 45.8 µM | 89.4 | > 100 µM | 75 µM | 26.4 µM | 45 | > 100 µM | > 100 µM | > 100 | > 100 µM |  |  |  |  |  |  |  |  |
| Cc1c2ccccc2c(C)n2c1nc1ccccc12 | 25.5 µM | 45.5 | 65.7 µM | 45.2 µM | 13.3 µM | > 100 | 20.1 µM | 30 µM | 89.6 | 24.1 µM |  |  |  |  |  |  |  |  |
| COc1ccc(N=C2C(=Nc3ccc(OC)cc3)N(c3ccc(N(C)C)cc3)C(=S)N2c2ccc(OC)cc2)cc1 | > 100 µM | > 100 | > 100 µM | > 100 µM | > 100 µM | > 100 | > 100 µM | > 100 µM | > 100 | > 100 µM |  |  |  |  |  |  |  |  |
| CCCC(=O)NC(Nc1ccc(F)cc1)(C(F)(F)F)C(F)(F)F | > 100 µM | > 100 | > 100 µM | > 100 µM | > 100 µM | > 100 | > 100 µM | > 100 µM | > 100 | > 100 µM |  |  |  |  |  |  |  |  |
| CCCN(CCC)C1CCc2c(ccc3cc[nH]c23)C1 (stereo not drawn) | > 100 µM | > 100 | > 100 µM | > 100 µM | > 100 µM | 96.7 | > 100 µM | > 100 µM | > 100 | > 100 µM |  |  |  |  |  |  |  |  |
| COc1c2ccsc2c(OC)c2ccsc12 | > 100 µM | > 100 | > 100 µM | > 100 µM | > 100 µM | > 100 | > 100 µM | > 100 µM | > 100 | > 100 µM |  |  |  |  |  |  |  |  |
| Cc1ccc(S(=O)(=O)N/N=C2/CCC(C(C)(C)C)CC2Br)cc1 (stereo not drawn) | > 100 µM | > 100 | > 100 µM | 72.3 µM | 51.9 µM | 49.3 | > 100 µM | > 100 µM | > 100 | 33.4 µM |  |  |  |  |  |  |  |  |
| O=[N+]([O-])c1cccc(Cl)c1Oc1ccc(S(=O)(=O)/N=C(\NO)Nc2ccc(Cl)cc2)cc1 | 28.2 µM | 27.5 | 33.8 µM | 17.1 µM | 32.2 µM | 19.3 | 29.3 µM | 28 µM | 29.3 | 23.7 µM |  |  |  |  |  |  |  |  |
| Cc1ccc2c(C(=O)c3c(C)n(CCN4CCOCC4)c4ccccc34)cccc2c1 | > 100 µM | 88.4 | 35.4 µM | 73.1 µM | 16.8 µM | 36.3 | 89.3 µM | 33.8 µM | > 100 | > 100 µM |  |  |  |  |  |  |  |  |
| Cc1c(O)c(OC2OC(CO)C(O)C(O)C2O)cc2c1C=C[C@@H]1[C@@]2(C)C(=O)C[C@]2(C)[C@@H]([C@@](C)(O)C(=O)CCC(C)(C)O)[C@H](O)C[C@@]12C (stereo partly drawn) | 36.7 µM | 36.2 | 66.3 µM | 40.8 µM | > 100 µM | 63.7 | 48 µM | 83.1 µM | 46.3 | 44.8 µM |  |  |  |  |  |  |  |  |
| Cc1cc(N(CCC#N)CCC#N)ccc1/C=C1\SC(=S)NC1=O | > 100 µM | > 100 | > 100 µM | > 100 µM | > 100 µM | > 100 | > 100 µM | > 100 µM | > 100 | > 100 µM |  |  |  |  |  |  |  |  |
| CN(C)CC1CCC/C(=C\c2ccc(OC(=O)/C=C/c3ccc(Cl)c(Cl)c3)cc2)C1=O (stereo not drawn) | 32.1 µM | 3.46 | 6.84 µM | 4.27 µM | 5.79 µM | 4.13 | 23.2 µM | 36.1 µM | 6.75 | 13.9 µM |  |  |  |  |  |  |  |  |
| COc1ccc([C@]23CCN4COC[C@@H]([C@H]42)C2(CC3)OCC(C)(C)CO2)cc1OC | > 100 µM | > 100 | > 100 µM | > 100 µM | > 100 µM | > 100 | > 100 µM | > 100 µM | > 100 | > 100 µM |  |  |  |  |  |  |  |  |
| CC(=O)NC1(C(=O)N[C@@H](Cc2ccccc2)C(=O)NC2CCCCC2)Cc2ccc3ccccc3c2-c2c(ccc3ccccc23)C1 | > 100 µM | > 100 | > 100 µM | > 100 µM | > 100 µM |  | > 100 µM | > 100 µM | > 100 | 22.9 µM and 45.9 µM | 1.91 µM and 4.43 µM | 8.66 µM and 31.3 µM | 2.8 µM and 11.8 µM |  |  |  |  |  |
| COC(=O)c1cccc(OC)c1C#Cc1c(OC)cccc1OC | > 100 µM | > 100 | > 100 µM | > 100 µM | > 100 µM | > 100 | > 100 µM | > 100 µM | > 100 | > 100 µM |  |  |  |  |  |  |  |  |
| CCN(CC)CCOC(=O)Cc1cccc2c(=O)cc(-c3ccccc3)oc12 | 62.5 µM and > 145 µM | 62.5 | 62.5 µM and > 216 µM | 42.6 µM and 82.5 µM | 62.5 µM and > 216 µM | 62.5 | 62.5 µM and > 111 µM | 62.5 µM and > 165 µM | 50.2 |  | 3.37 µM |  | 295 µM | 40.2 | 82.5 | 8.02 | 46.9 | 36.4 |
| COC(=O)NC(Cc1ccccc1)NC(C)=O (stereo not drawn) | > 100 µM | > 100 | > 100 µM | > 100 µM | > 100 µM | > 100 | > 100 µM | > 100 µM | > 100 | > 100 µM |  |  |  |  |  |  |  |  |
| N#CC[N+]1(Cc2ccccn2)CCCC1 | > 100 µM | > 100 | > 100 µM | > 100 µM | > 100 µM | > 100 | > 100 µM | > 100 µM | > 100 | > 100 µM |  |  |  |  |  |  |  |  |
| Cc1cc(O)cc(O)c1C(=O)O[C@]1(C)C(=O)C=C2C=C(/C=C/C(=O)O)OC=C2C1=O | > 100 µM | > 100 | > 100 µM | > 100 µM | > 100 µM | > 100 | > 100 µM | > 100 µM | > 100 | > 100 µM |  |  |  |  |  |  |  |  |
| Cc1cc(N2CCCC2)c([N+](=O)[O-])cc1[N+](=O)[O-] | > 100 µM | > 100 | > 100 µM | > 100 µM | > 100 µM | > 100 | > 100 µM | > 100 µM | > 100 | > 100 µM |  |  |  |  |  |  |  |  |
| COC(=O)C1=CON2C3CC4CC(C3)CC(C4)C12C (stereo not drawn) | > 100 µM | > 100 | > 100 µM | > 100 µM | > 100 µM | > 100 | > 100 µM | > 100 µM | > 100 | > 100 µM |  |  |  |  |  |  |  |  |
| O=[N+]([O-])c1ccc(N2N=C(c3ccc4ccccc4c3O)CC2c2ccc(Cl)cc2)c([N+](=O)[O-])c1 (stereo not drawn) | > 100 µM | > 100 | > 100 µM | > 100 µM | > 100 µM | 49 | > 100 µM | > 100 µM | > 100 | > 100 µM |  |  |  |  |  |  |  |  |
